Assay [1] has as its target T1, human Nav1.5 channels stably expressed in HEK 293 cells (Homo sapiens, UniProt Q14524).
T1 construct: expressed in transfected cells
Briefly: PatchXpress 7000 automated patch-clamp, sodium current. In kind it is cell-based. The note with it: selectivity over Nav1.5. The method, boiled down: (§1)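 IC50 values came from Hill-equation fits of rundown-corrected inhibition. PatchXpress recordings at 22° C held cells 20 mV negative to V0.5 inact and applied 10 Hz trains of 30 ms steps to −20 mV (Nav1.7) or an 8000 ms prepulse 7 mV positive to V0.5 inact. […]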

Assay [2] deals with T2, human Nav1.7 channels stably expressed in HEK 293 cells (Homo sapiens, UniProt Q15858).
T2 construct: expressed in transfected cells
T2 sequence (Q15858 whole entry): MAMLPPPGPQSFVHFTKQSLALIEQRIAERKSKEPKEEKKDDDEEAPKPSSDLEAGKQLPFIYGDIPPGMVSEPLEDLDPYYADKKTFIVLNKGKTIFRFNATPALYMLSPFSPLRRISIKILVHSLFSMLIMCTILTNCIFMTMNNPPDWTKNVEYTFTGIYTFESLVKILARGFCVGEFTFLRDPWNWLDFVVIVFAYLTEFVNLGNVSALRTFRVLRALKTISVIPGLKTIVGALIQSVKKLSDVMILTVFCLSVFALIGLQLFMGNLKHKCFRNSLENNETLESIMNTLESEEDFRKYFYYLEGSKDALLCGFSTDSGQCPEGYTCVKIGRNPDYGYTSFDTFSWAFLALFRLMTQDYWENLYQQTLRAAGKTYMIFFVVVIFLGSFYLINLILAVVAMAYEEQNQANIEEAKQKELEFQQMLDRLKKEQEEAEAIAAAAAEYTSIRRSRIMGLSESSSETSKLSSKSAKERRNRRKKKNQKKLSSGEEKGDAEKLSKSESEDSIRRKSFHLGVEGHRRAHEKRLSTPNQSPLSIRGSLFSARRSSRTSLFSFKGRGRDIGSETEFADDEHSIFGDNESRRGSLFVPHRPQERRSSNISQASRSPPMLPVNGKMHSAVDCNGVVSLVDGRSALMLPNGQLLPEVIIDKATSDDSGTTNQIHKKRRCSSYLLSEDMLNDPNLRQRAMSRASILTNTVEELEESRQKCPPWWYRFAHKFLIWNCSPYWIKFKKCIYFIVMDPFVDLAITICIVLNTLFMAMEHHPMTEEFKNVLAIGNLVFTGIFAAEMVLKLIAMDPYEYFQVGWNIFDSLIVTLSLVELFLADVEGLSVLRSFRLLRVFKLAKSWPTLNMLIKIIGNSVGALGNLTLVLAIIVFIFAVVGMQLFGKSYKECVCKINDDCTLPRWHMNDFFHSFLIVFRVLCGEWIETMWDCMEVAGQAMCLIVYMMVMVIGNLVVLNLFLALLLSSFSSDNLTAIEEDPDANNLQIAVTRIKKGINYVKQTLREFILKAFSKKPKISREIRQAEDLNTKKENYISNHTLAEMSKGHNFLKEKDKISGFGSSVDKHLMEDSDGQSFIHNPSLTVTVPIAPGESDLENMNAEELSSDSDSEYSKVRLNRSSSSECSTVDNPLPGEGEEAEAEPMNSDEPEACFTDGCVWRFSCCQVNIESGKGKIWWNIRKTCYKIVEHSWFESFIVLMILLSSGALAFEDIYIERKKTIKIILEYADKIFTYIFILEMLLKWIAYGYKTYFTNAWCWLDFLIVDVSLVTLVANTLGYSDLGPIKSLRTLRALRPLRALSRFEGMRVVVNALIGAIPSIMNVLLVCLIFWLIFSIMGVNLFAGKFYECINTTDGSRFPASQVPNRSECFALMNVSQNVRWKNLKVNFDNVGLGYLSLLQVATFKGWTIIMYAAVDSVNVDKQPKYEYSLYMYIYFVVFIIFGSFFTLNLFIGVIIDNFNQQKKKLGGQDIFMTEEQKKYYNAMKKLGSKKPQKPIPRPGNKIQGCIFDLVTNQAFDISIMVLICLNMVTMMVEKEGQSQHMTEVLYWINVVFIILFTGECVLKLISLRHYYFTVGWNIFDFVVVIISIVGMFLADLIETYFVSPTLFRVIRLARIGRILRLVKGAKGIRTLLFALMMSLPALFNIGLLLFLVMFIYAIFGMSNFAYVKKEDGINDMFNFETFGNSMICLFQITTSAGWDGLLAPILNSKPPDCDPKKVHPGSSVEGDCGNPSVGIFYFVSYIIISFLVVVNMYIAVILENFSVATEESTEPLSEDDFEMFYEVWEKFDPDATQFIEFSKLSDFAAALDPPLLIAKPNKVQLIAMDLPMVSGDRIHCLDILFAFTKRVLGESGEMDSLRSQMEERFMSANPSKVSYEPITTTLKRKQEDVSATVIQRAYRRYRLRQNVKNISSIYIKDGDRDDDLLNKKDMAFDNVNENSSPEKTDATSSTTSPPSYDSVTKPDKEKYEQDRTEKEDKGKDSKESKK
Described as above. In kind it is cell-based. The following applies: 22° C., read-out: potency for the Nav 1.7 sodium ion channel (as measured by PatchXpress). The essentials:
as §1

T1 sequence (Q14524 whole entry): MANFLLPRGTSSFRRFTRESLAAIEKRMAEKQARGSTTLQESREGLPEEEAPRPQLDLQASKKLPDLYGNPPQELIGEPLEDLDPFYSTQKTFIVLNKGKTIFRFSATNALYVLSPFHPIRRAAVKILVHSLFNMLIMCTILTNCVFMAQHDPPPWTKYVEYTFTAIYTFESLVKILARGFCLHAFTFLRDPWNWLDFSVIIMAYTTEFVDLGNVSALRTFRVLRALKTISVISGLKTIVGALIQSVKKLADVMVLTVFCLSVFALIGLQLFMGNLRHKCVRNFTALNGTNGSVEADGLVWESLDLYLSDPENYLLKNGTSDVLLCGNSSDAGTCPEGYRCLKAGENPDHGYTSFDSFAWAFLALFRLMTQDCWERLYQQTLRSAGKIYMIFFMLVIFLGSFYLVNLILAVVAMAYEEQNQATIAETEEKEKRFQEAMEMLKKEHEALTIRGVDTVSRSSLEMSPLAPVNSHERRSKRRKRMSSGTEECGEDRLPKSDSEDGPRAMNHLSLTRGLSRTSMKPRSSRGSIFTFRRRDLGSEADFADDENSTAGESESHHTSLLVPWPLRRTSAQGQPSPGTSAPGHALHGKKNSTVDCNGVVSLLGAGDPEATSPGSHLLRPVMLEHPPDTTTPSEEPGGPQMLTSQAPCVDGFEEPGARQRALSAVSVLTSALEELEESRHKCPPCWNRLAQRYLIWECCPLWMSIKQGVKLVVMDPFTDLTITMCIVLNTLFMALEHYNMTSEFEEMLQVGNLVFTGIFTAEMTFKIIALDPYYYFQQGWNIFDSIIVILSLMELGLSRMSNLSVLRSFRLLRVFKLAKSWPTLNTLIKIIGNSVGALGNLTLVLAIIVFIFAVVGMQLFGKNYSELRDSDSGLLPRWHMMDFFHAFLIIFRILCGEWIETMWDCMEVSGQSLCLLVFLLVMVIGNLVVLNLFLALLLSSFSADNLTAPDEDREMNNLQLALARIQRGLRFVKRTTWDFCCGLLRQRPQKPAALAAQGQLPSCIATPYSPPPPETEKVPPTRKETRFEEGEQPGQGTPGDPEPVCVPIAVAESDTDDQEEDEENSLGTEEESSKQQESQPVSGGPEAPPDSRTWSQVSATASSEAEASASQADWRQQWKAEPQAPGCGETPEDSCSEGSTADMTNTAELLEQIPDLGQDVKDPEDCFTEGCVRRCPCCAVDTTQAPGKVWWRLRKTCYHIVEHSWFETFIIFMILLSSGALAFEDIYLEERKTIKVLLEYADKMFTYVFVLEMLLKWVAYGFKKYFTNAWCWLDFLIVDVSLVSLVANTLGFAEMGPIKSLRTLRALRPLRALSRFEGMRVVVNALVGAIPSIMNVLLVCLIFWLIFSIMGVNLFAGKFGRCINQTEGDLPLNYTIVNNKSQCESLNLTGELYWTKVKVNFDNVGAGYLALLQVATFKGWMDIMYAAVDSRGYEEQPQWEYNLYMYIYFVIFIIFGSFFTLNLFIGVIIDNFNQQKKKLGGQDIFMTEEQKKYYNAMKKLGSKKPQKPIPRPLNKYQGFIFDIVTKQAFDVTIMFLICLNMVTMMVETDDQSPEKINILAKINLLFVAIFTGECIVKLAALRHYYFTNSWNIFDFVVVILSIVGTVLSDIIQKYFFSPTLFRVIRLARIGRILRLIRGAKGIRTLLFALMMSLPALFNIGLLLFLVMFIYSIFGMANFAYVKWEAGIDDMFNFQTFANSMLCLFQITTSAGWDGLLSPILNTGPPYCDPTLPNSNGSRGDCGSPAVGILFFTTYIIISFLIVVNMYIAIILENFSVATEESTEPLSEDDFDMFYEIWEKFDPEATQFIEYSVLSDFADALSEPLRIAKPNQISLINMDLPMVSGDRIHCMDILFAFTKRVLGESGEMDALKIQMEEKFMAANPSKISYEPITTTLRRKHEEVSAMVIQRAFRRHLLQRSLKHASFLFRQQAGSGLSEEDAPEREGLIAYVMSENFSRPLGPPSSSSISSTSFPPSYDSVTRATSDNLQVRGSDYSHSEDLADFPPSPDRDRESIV

In the case of `O=c1oc2cc(S(=O)(=O)Nc3nccs3)c(F)cc2n1C1CCCc2ccc(Cl)nc21` (centres unmarked) [Compound 43-5, 3-(2-chloro-5,6,7,8-tetrahydroquinolin-8-yl)-5-fluoro-2-oxo-N-1,3-thiazol-2-yl-2,3-dihydro-1,3-benzoxazole-6-sulfonamide], the “ratio of Nav 1.5:Nav 1.7 potency, determined by PatchXpress measurement” value (shortened to “ratio of Nav 1.5:Nav 1.7 potency”) in assay [1] is 202. Also, the IC50 in assay [2] turned out to be 0.416 µM.

Take `O=c1oc2cc(S(=O)(=O)Nc3nccs3)c(F)cc2n1Cc1cccc(Br)c1` [Compound 43-6, 3-(3-bromobenzyl)-5-fluoro-2-oxo-N-1,3-thiazol-2-yl-2,3-dihydro-1,3-benzoxazole-6-sulfonamide]: the “ratio of Nav 1.5:Nav 1.7 potency” value in assay [1] was determined as 80. Besides, the IC50 in assay [2] worked out at 0.162 µM.

With `Cc1ccc2c(c1)C(n1c(=O)oc3cc(S(=O)(=O)Nc4nccs4)c(F)cc31)CCC2` (centres unmarked) [Compound 43-7, 5-fluoro-3-(7-methyl-1,2,3,4-tetrahydronaphthalen-1-yl)-2-oxo-N-1,3-thiazol-2-yl-2,3-dihydro-1,3-benzoxazole-6-sulfonamide], the “ratio of Nav 1.5:Nav 1.7 potency” value in assay [1] is reported as 137. Besides, in assay [2], the IC50 was found to be 0.111 µM.

With `O=c1oc2cc(S(=O)(=O)Nc3nccs3)c(F)cc2n1C1CCCc2c(F)cccc21` (centres unmarked) [Compound 43-8, 5-fluoro-3-(5-fluoro-1,2,3,4-tetrahydronaphthalen-1-yl)-2-oxo-N-1,3-thiazol-2-yl-2,3-dihydro-1,3-benzoxazole-6-sulfonamide], the “ratio of Nav 1.5:Nav 1.7 potency” value in assay [1] is reported as 75. The IC50 in assay [2] came out at 0.071 µM.

As to `O=c1oc2cc(S(=O)(=O)Nc3nccs3)c(F)cc2n1C1CCCc2c(F)cc(F)cc21` (centres unmarked) [Compound 43-9, 3-(5,7-difluoro-1,2,3,4-tetrahydronaphthalen-1-yl)-5-fluoro-2-oxo-N-1,3-thiazol-2-yl-2,3-dihydro-1,3-benzoxazole-6-sulfonamide], in assay [1], the “ratio of Nav 1.5:Nav 1.7 potency” value came to 95. In addition, in assay [2], the IC50 was found to be 0.067 µM.

Consider `O=c1oc2cc(S(=O)(=O)Nc3nccs3)c(F)cc2n1C1CC2(CCC2)Oc2ccc(Br)cc21` (centres unmarked) [Compound 43-10, 3-(6-bromo-3,4-dihydrospiro[chromene-2,1′-cyclobutan]-4-yl)-5-fluoro-2-oxo-N-1,3-thiazol-2-yl-2,3-dihydro-1,3-benzoxazole-6-sulfonamide], for which, in assay [1], the “ratio of Nav 1.5:Nav 1.7 potency” value is 29. The IC50 in assay [2] amounted to 0.058 µM.

For `O=c1oc2cc(S(=O)(=O)Nc3nccs3)c(F)cc2n1C1CC2(CCC2)Oc2ccc(F)cc21` (centres unmarked) [Compound 43-11, 5-fluoro-3-(6-fluoro-3,4-dihydrospiro[chromene-2,1′-cyclobutan]-4-yl)-2-oxo-N-1,3-thiazol-2-yl-2,3-dihydro-1,3-benzoxazole-6-sulfonamide], the “ratio of Nav 1.5:Nav 1.7 potency” value in assay [1] is listed as 196. Also, the IC50 in assay [2] came to 0.041 µM.

In the case of `O=c1oc2cc(S(=O)(=O)Nc3nccs3)c(F)cc2n1C1CCCc2ccc(F)cc21` (centres unmarked) [Compound 43-12, 5-fluoro-3-(7-fluoro-1,2,3,4-tetrahydronaphthalen-1-yl)-2-oxo-N-1,3-thiazol-2-yl-2,3-dihydro-1,3-benzoxazole-6-sulfonamide], in assay [1], the “ratio of Nav 1.5:Nav 1.7 potency” value was 145. Besides, the IC50 in assay [2] is 0.03 µM.

On to `Nc1cccc2c1CCCC2n1c(=O)oc2cc(S(=O)(=O)Nc3nccs3)c(F)cc21` (centres unmarked) [Compound 43-13, 3-(5-amino-1,2,3,4-tetrahydronaphthalen-1-yl)-5-fluoro-2-oxo-N-1,3-thiazol-2-yl-2,3-dihydro-1,3-benzoxazole-6-sulfonamide], for which the “ratio of Nav 1.5:Nav 1.7 potency” value in assay [1] was 74. For the same molecule, the IC50 in assay [2] is 0.405 µM.

Regarding `Nc1ccc2c(c1)C(n1c(=O)oc3cc(S(=O)(=O)Nc4nccs4)c(F)cc31)CCC2` (centres unmarked) [Compound 43-14, 3-(7-amino-1,2,3,4-tetrahydronaphthalen-1-yl)-5-fluoro-2-oxo-N-1,3-thiazol-2-yl-2,3-dihydro-1,3-benzoxazole-6-sulfonamide], the “ratio of Nav 1.5:Nav 1.7 potency” value in assay [1] came out at 724. For the same molecule, in assay [2], the IC50 came out at 0.14 µM.

In the case of `C[C@H](c1cccc2c1CNCC2)n1c(=O)oc2cc(S(=O)(=O)Nc3nccs3)c(F)cc21` [Compound 43-15, 5-fluoro-2-oxo-3-[(1R)-1-(1,2,3,4-tetrahydroisoquinolin-8-yl)ethyl]-N-1,3-thiazol-2-yl-2,3-dihydro-1,3-benzoxazole-6-sulfonamide], the “ratio of Nav 1.5:Nav 1.7 potency” value in assay [1] was 147. Besides, the IC50 in assay [2] is 0.08 µM.

As to `Nc1ccc2c(c1)C(n1c(=O)oc3cc(S(=O)(=O)Nc4nccs4)c(F)cc31)CCC2` (centres unmarked) [Compound 43-16, 3-(7-amino-1,2,3,4-tetrahydronaphthalen-1-yl)-5-fluoro-2-oxo-N-1,3-thiazol-2-yl-2,3-dihydro-1,3-benzoxazole-6-sulfonamide], the “ratio of Nav 1.5:Nav 1.7 potency” value in assay [1] came to 329. Besides, the IC50 in assay [2] was determined as 0.211 µM.

As for `C[C@@H](c1cccc2cncn12)n1c(=O)oc2cc(S(=O)(=O)Nc3nccs3)c(F)cc21` [Compound 43-17, 5-fluoro-3-[(1S)-1-imidazo[1,5-a]pyridin-5-ylethyl]-2-oxo-N-1,3-thiazol-2-yl-2,3-dihydro-1,3-benzoxazole-6-sulfonamide], the “ratio of Nav 1.5:Nav 1.7 potency” value in assay [1] is listed as 48. Also, the IC50 in assay [2] is 0.621 µM.

For the molecule `C[C@H](c1cccc2cncn12)n1c(=O)oc2cc(S(=O)(=O)Nc3nccs3)c(F)cc21` [Compound 43-18, 5-fluoro-3-[(1R)-1-imidazo[1,5-a]pyridin-5-ylethyl]-2-oxo-N-1,3-thiazol-2-yl-2,3-dihydro-1,3-benzoxazole-6-sulfonamide], the “ratio of Nav 1.5:Nav 1.7 potency” value in assay [1] is reported as 139. Besides, the IC50 in assay [2] turned out to be 0.215 µM.

`C[C@H](c1ccccc1C#CCN)n1c(=O)oc2cc(S(=O)(=O)Nc3nccs3)c(F)cc21` [Compound 43-19, 3-{(1R)-1-[2-(3-aminoprop-1-yn-1-yl)phenyl]ethyl}-5-fluoro-2-oxo-N-1,3-thiazol-2-yl-2,3-dihydro-1,3-benzoxazole-6-sulfonamide]: the “ratio of Nav 1.5:Nav 1.7 potency” value in assay [1] amounted to 1267. For the same molecule, the IC50 in assay [2] was found to be 0.029 µM.

In the case of `C[C@@H](c1ccccc1C1CNC1)n1c(=O)oc2cc(S(=O)(=O)Nc3nccs3)c(F)cc21` [Compound 43-20, 3-[(1S)-1-(2-azetidin-3-ylphenyl)ethyl]-5-fluoro-2-oxo-N-1,3-thiazol-2-yl-2,3-dihydro-1,3-benzoxazole-6-sulfonamide], in assay [1], the “ratio of Nav 1.5:Nav 1.7 potency” value was determined as 48. For the same molecule, the IC50 in assay [2] turned out to be 0.621 µM.

As to `C[C@H](c1ccccc1C1CNC1)n1c(=O)oc2cc(S(=O)(=O)Nc3nccs3)c(F)cc21` [Compound 43-21, 3-[(1R)-1-(2-azetidin-3-ylphenyl)ethyl]-5-fluoro-2-oxo-N-1,3-thiazol-2-yl-2,3-dihydro-1,3-benzoxazole-6-sulfonamide], in assay [1], the “ratio of Nav 1.5:Nav 1.7 potency” value stood at 1164. Moreover, the IC50 in assay [2] amounted to 0.018 µM.

For `C[C@H](c1ccccc1C1(O)CNC1)n1c(=O)oc2cc(S(=O)(=O)Nc3nccs3)c(F)cc21` [Compound 43-22, 5-fluoro-3-{(1R)-1-[2-(3-hydroxyazetidin-3-yl)phenyl]ethyl}-2-oxo-N-1,3-thiazol-2-yl-2,3-dihydro-1,3-benzoxazole-6-sulfonamide], the “ratio of Nav 1.5:Nav 1.7 potency” value in assay [1] is 703. Further, the IC50 in assay [2] came to 0.061 µM.

Take `C[C@H](c1ccccc1C1(F)CNC1)n1c(=O)oc2cc(S(=O)(=O)Nc3nccs3)c(F)cc21` [Compound 43-23, 5-fluoro-3-{(1R)-1-[2-(3-fluoroazetidin-3-yl)phenyl]ethyl}-2-oxo-N-1,3-thiazol-2-yl-2,3-dihydro-1,3-benzoxazole-6-sulfonamide]: in assay [1], the “ratio of Nav 1.5:Nav 1.7 potency” value was 5541. Moreover, the IC50 in assay [2] worked out at 0.004 µM.

With `Cc1n[nH]cc1-c1cccc([C@@H](C)n2c(=O)oc3cc(S(=O)(=O)Nc4nccs4)c(F)cc32)c1` [Compound 43-24, 5-fluoro-3-{(1R)-1-[3-(3-methyl-1H-pyrazol-4-yl)phenyl]ethyl}-2-oxo-N-1,3-thiazol-2-yl-2,3-dihydro-l,3-benzoxazole-6-sulfonamide], in assay [1], the “ratio of Nav 1.5:Nav 1.7 potency” value is 33. Further, the IC50 in assay [2] came to 0.103 µM.

Take `C[C@H](c1cccc(-c2ccn(C)n2)c1)n1c(=O)oc2cc(S(=O)(=O)Nc3nccs3)c(F)cc21` [Compound 43-25, 5-fluoro-3-{(1R)-1-[3-(1-methyl-1H-pyrazol-3-yl)phenyl]ethyl}-2-oxo-N-1,3-thiazol-2-yl-2,3-dihydro-1,3-benzoxazole-6-sulfonamide]: in assay [1], the “ratio of Nav 1.5:Nav 1.7 potency” value is 86. In assay [2], the IC50 is 0.306 µM.

Consider `Cl.O=c1oc2cc(S(=O)(=O)Nc3nccs3)c(F)cc2n1Cc1cccc2c1CNCC2(F)F` [Compound 44-5, 3-((4,4-Difluoro-1,2,3,4-tetrahydroisoquinolin-8-yl)methyl)-5-fluoro-2-oxo-N-(thiazol-2-yl)-2,3-dihydrobenzo[d]oxazole-6-sulfonamide hydrochloride], for which, in assay [1], the “ratio of Nav 1.5:Nav 1.7 potency” value was 151. In assay [2], the IC50 is 0.181 µM.

The values are drawn from US9273040B2 (Merck Sharp & Dohme Corp., priority 2011, dated 2016).
